From ChEMBL document CHEMBL5244230, “Artemisinin-derived hybrids and their anticancer activity” (Eur J Med Chem, 2020)

System: HeLa
Experiment: Antiproliferative activity against human HeLa cells assessed as reduction in cell viability measured for 72 hrs by MTT assay
Type: functional, cell-based
Conditions: not given

`COc1ccc(OC)c(/C=C/C(=O)c2ccc(COCC(=O)N[C@@H]3O[C@@H]4O[C@@]5(C)CC[C@H]6[C@H](C)CC[C@@H]([C@H]3C)[C@@]46OO5)cc2)c1` and `COc1cccc(/C=C/C(=O)c2ccc(COCC(=O)N[C@H]3O[C@@H]4O[C@@]5(C)CC[C@H]6[C@H](C)CC[C@@H]([C@H]3C)[C@@]46OO5)cc2)c1` are within 1.5-fold of each other in IC50: 100 nM for the first, 90 nM for the second.

`C[C@H]1[C@@H](NC(=O)COCc2ccc(C(=O)/C=C/c3ccccc3F)cc2)O[C@@H]2O[C@@]3(C)CC[C@H]4[C@H](C)CC[C@@H]1[C@@]24OO3` and `C[C@H]1[C@@H](NC(=O)COCc2ccc(C(=O)/C=C/c3ccc(Cl)cc3F)cc2)O[C@@H]2O[C@@]3(C)CC[C@H]4[C@H](C)CC[C@@H]1[C@@]24OO3` are the same in IC50: 90 nM for the first, 90 nM for the second.

`C[C@H]1[C@@H](NC(=O)COCc2ccc(C(=O)/C=C/c3cccc(Cl)c3Cl)cc2)O[C@@H]2O[C@@]3(C)CC[C@H]4[C@H](C)CC[C@@H]1[C@@]24OO3` and `C[C@H]1[C@@H](NC(=O)COCc2ccc(C(=O)/C=C/c3c(Cl)cccc3Cl)cc2)O[C@@H]2O[C@@]3(C)CC[C@H]4[C@H](C)CC[C@@H]1[C@@]24OO3` are the same in IC50: 90 nM for the first, 90 nM for the second.

`C[C@H]1[C@@H](NC(=O)COCc2ccc(/C=C/C(=O)c3ccc(Cl)c(Cl)c3)cc2)O[C@@H]2O[C@@]3(C)CC[C@H]4[C@H](C)CC[C@@H]1[C@@]24OO3` and `C[C@H]1[C@@H](NC(=O)COCc2ccc(/C=C/C(=O)c3ccc(C(F)(F)F)cc3)cc2)O[C@@H]2O[C@@]3(C)CC[C@H]4[C@H](C)CC[C@@H]1[C@@]24OO3` are the same in IC50: 1700 nM for the first, 1700 nM for the second.

System: HT-29
Experiment: Antiproliferative activity against human HT-29 cells assessed as reduction in cell viability measured for 72 hrs by MTT assay
Type: functional, cell-based
Conditions: HT-29, 72 h

`COc1ccc(OC)c(/C=C/C(=O)c2ccc(COCC(=O)N[C@@H]3O[C@@H]4O[C@@]5(C)CC[C@H]6[C@H](C)CC[C@@H]([C@H]3C)[C@@]46OO5)cc2)c1` and `COc1cccc(/C=C/C(=O)c2ccc(COCC(=O)N[C@H]3O[C@@H]4O[C@@]5(C)CC[C@H]6[C@H](C)CC[C@@H]([C@H]3C)[C@@]46OO5)cc2)c1` are within 1.5-fold of each other in IC50: 100 nM for the first, 90 nM for the second.

`C[C@H]1[C@@H](NC(=O)COCc2ccc(C(=O)/C=C/c3ccccc3F)cc2)O[C@@H]2O[C@@]3(C)CC[C@H]4[C@H](C)CC[C@@H]1[C@@]24OO3` and `C[C@H]1[C@@H](NC(=O)COCc2ccc(C(=O)/C=C/c3ccc(Cl)cc3F)cc2)O[C@@H]2O[C@@]3(C)CC[C@H]4[C@H](C)CC[C@@H]1[C@@]24OO3` are the same in IC50: 90 nM for the first, 90 nM for the second.

`C[C@H]1[C@@H](NC(=O)COCc2ccc(C(=O)/C=C/c3cccc(Cl)c3Cl)cc2)O[C@@H]2O[C@@]3(C)CC[C@H]4[C@H](C)CC[C@@H]1[C@@]24OO3` and `C[C@H]1[C@@H](NC(=O)COCc2ccc(C(=O)/C=C/c3c(Cl)cccc3Cl)cc2)O[C@@H]2O[C@@]3(C)CC[C@H]4[C@H](C)CC[C@@H]1[C@@]24OO3` are the same in IC50: 90 nM for the first, 90 nM for the second.

`C[C@H]1[C@@H](NC(=O)COCc2ccc(/C=C/C(=O)c3ccc(Cl)c(Cl)c3)cc2)O[C@@H]2O[C@@]3(C)CC[C@H]4[C@H](C)CC[C@@H]1[C@@]24OO3` and `C[C@H]1[C@@H](NC(=O)COCc2ccc(/C=C/C(=O)c3ccc(C(F)(F)F)cc3)cc2)O[C@@H]2O[C@@]3(C)CC[C@H]4[C@H](C)CC[C@@H]1[C@@]24OO3` are the same in IC50: 1700 nM for the first, 1700 nM for the second.

System: NCI-H460
Experiment: Antiproliferative activity against human NCI-H460 cells assessed as reduction in cell viability measured for 72 hrs by MTT assay
Type: functional, cell-based
Conditions: NCI-H460, 72 h

`COc1ccc(OC)c(/C=C/C(=O)c2ccc(COCC(=O)N[C@@H]3O[C@@H]4O[C@@]5(C)CC[C@H]6[C@H](C)CC[C@@H]([C@H]3C)[C@@]46OO5)cc2)c1` and `COc1cccc(/C=C/C(=O)c2ccc(COCC(=O)N[C@H]3O[C@@H]4O[C@@]5(C)CC[C@H]6[C@H](C)CC[C@@H]([C@H]3C)[C@@]46OO5)cc2)c1` are within 1.5-fold of each other in IC50: 100 nM for the first, 90 nM for the second.

`C[C@H]1[C@@H](NC(=O)COCc2ccc(C(=O)/C=C/c3ccccc3F)cc2)O[C@@H]2O[C@@]3(C)CC[C@H]4[C@H](C)CC[C@@H]1[C@@]24OO3` and `C[C@H]1[C@@H](NC(=O)COCc2ccc(C(=O)/C=C/c3ccc(Cl)cc3F)cc2)O[C@@H]2O[C@@]3(C)CC[C@H]4[C@H](C)CC[C@@H]1[C@@]24OO3` are the same in IC50: 90 nM for the first, 90 nM for the second.

`C[C@H]1[C@@H](NC(=O)COCc2ccc(C(=O)/C=C/c3cccc(Cl)c3Cl)cc2)O[C@@H]2O[C@@]3(C)CC[C@H]4[C@H](C)CC[C@@H]1[C@@]24OO3` and `C[C@H]1[C@@H](NC(=O)COCc2ccc(C(=O)/C=C/c3c(Cl)cccc3Cl)cc2)O[C@@H]2O[C@@]3(C)CC[C@H]4[C@H](C)CC[C@@H]1[C@@]24OO3` are the same in IC50: 90 nM for the first, 90 nM for the second.

`C[C@H]1[C@@H](NC(=O)COCc2ccc(/C=C/C(=O)c3ccc(Cl)c(Cl)c3)cc2)O[C@@H]2O[C@@]3(C)CC[C@H]4[C@H](C)CC[C@@H]1[C@@]24OO3` and `C[C@H]1[C@@H](NC(=O)COCc2ccc(/C=C/C(=O)c3ccc(C(F)(F)F)cc3)cc2)O[C@@H]2O[C@@]3(C)CC[C@H]4[C@H](C)CC[C@@H]1[C@@]24OO3` are the same in IC50: 1700 nM for the first, 1700 nM for the second.

System: A549
Experiment: Antiproliferative activity against human A549 cells assessed as reduction in cell viability measured for 72 hrs by MTT assay
Type: functional, cell-based
Conditions: A549, 72 h

`COc1ccc(OC)c(/C=C/C(=O)c2ccc(COCC(=O)N[C@@H]3O[C@@H]4O[C@@]5(C)CC[C@H]6[C@H](C)CC[C@@H]([C@H]3C)[C@@]46OO5)cc2)c1` and `COc1cccc(/C=C/C(=O)c2ccc(COCC(=O)N[C@H]3O[C@@H]4O[C@@]5(C)CC[C@H]6[C@H](C)CC[C@@H]([C@H]3C)[C@@]46OO5)cc2)c1` are within 1.5-fold of each other in IC50: 100 nM for the first, 90 nM for the second.

`C[C@H]1[C@@H](NC(=O)COCc2ccc(C(=O)/C=C/c3ccccc3F)cc2)O[C@@H]2O[C@@]3(C)CC[C@H]4[C@H](C)CC[C@@H]1[C@@]24OO3` and `C[C@H]1[C@@H](NC(=O)COCc2ccc(C(=O)/C=C/c3ccc(Cl)cc3F)cc2)O[C@@H]2O[C@@]3(C)CC[C@H]4[C@H](C)CC[C@@H]1[C@@]24OO3` are the same in IC50: 90 nM for the first, 90 nM for the second.

`C[C@H]1[C@@H](NC(=O)COCc2ccc(C(=O)/C=C/c3cccc(Cl)c3Cl)cc2)O[C@@H]2O[C@@]3(C)CC[C@H]4[C@H](C)CC[C@@H]1[C@@]24OO3` and `C[C@H]1[C@@H](NC(=O)COCc2ccc(C(=O)/C=C/c3c(Cl)cccc3Cl)cc2)O[C@@H]2O[C@@]3(C)CC[C@H]4[C@H](C)CC[C@@H]1[C@@]24OO3` are the same in IC50: 90 nM for the first, 90 nM for the second.

`C[C@H]1[C@@H](NC(=O)COCc2ccc(/C=C/C(=O)c3ccc(Cl)c(Cl)c3)cc2)O[C@@H]2O[C@@]3(C)CC[C@H]4[C@H](C)CC[C@@H]1[C@@]24OO3` and `C[C@H]1[C@@H](NC(=O)COCc2ccc(/C=C/C(=O)c3ccc(C(F)(F)F)cc3)cc2)O[C@@H]2O[C@@]3(C)CC[C@H]4[C@H](C)CC[C@@H]1[C@@]24OO3` are the same in IC50: 1700 nM for the first, 1700 nM for the second.

System: MDA-MB-231
Experiment: Antiproliferative activity against human MDA-MB-231 cells assessed as reduction in cell viability measured for 72 hrs by MTT assay
Type: functional, cell-based
Conditions: MDA-MB-231, 72 h

`COc1ccc(OC)c(/C=C/C(=O)c2ccc(COCC(=O)N[C@@H]3O[C@@H]4O[C@@]5(C)CC[C@H]6[C@H](C)CC[C@@H]([C@H]3C)[C@@]46OO5)cc2)c1` and `COc1cccc(/C=C/C(=O)c2ccc(COCC(=O)N[C@H]3O[C@@H]4O[C@@]5(C)CC[C@H]6[C@H](C)CC[C@@H]([C@H]3C)[C@@]46OO5)cc2)c1` are within 1.5-fold of each other in IC50: 100 nM for the first, 90 nM for the second.

`C[C@H]1[C@@H](NC(=O)COCc2ccc(C(=O)/C=C/c3ccccc3F)cc2)O[C@@H]2O[C@@]3(C)CC[C@H]4[C@H](C)CC[C@@H]1[C@@]24OO3` and `C[C@H]1[C@@H](NC(=O)COCc2ccc(C(=O)/C=C/c3ccc(Cl)cc3F)cc2)O[C@@H]2O[C@@]3(C)CC[C@H]4[C@H](C)CC[C@@H]1[C@@]24OO3` are the same in IC50: 90 nM for the first, 90 nM for the second.

`C[C@H]1[C@@H](NC(=O)COCc2ccc(C(=O)/C=C/c3cccc(Cl)c3Cl)cc2)O[C@@H]2O[C@@]3(C)CC[C@H]4[C@H](C)CC[C@@H]1[C@@]24OO3` and `C[C@H]1[C@@H](NC(=O)COCc2ccc(C(=O)/C=C/c3c(Cl)cccc3Cl)cc2)O[C@@H]2O[C@@]3(C)CC[C@H]4[C@H](C)CC[C@@H]1[C@@]24OO3` are the same in IC50: 90 nM for the first, 90 nM for the second.

`C[C@H]1[C@@H](NC(=O)COCc2ccc(/C=C/C(=O)c3ccc(Cl)c(Cl)c3)cc2)O[C@@H]2O[C@@]3(C)CC[C@H]4[C@H](C)CC[C@@H]1[C@@]24OO3` and `C[C@H]1[C@@H](NC(=O)COCc2ccc(/C=C/C(=O)c3ccc(C(F)(F)F)cc3)cc2)O[C@@H]2O[C@@]3(C)CC[C@H]4[C@H](C)CC[C@@H]1[C@@]24OO3` are the same in IC50: 1700 nM for the first, 1700 nM for the second.
